# Assay results taken from patent publication US20260071150A1, “MICROBIAL ENHANCED COMPOSITIONS WHICH OVERCOME ANTAGONISTIC SURFACTANT INCOMPATIBILITY” (Stepan Company, priority 2023, published 2026).
# Like-named read-outs stand apart in the source and are kept apart here.
# Tests used:
# [1] = tested on: Bacillus species mix in spore form; experiment: dyed extra-virgin olive oil (EVOO) digestion test with Stat-Ease 360 optimization; assay type: cell-based
# Description: Because EVOO is a food source for vegetative cells, lightly-dyed EVOO added to a test sample containing bacterial spores can be an indicator of biological activity. […] Each test composition also included 0.20 g of 33 g/L Nutrient Mix (30 g/L Tryptic Soy Broth BD211825 and 3 g/L Yeast Extract BD212750 at pH 7.1-7.4). The test composition is mixed, then stored at 37° C. for 2-3 days to condition the spores. […] The initial oil drop is digitally photographed, and re-photographed after 4 days of gentle swirling on an orbital shaker at a setting of 1-2 on a scale of 0-10. Oil drop sizes are determined by transferring the photographed images to a computer and measuring the major diameter of each oil drop using a Tracker.jar line profile analysis (https://physlets.org/tracker/) to determine the length of the diameter in units of pixels. Oil drop sizes of initial and digested test samples are compared. […] An increase in measured drop diameter is interpreted as a change in surface tension due to the surfactant, combined with no or minimal EVOO digestion by the bacteria.
# Stat-Ease 360 software was used to generate each design of experiment sample group, model the test results from the resulting data, and generate statistics for the optimal models. The models were then used to generate an optimization plot using Stat-Ease 360's Numerical Optimization function. The optimization includes a contour plot of “desirability” of component levels for the defined design space. These plots visually represent the complex relationships between the surfactant and additive components and show where desired performance is high and where it is low or zero.
# [2] = physical stability (spore dispersion) of test compositions; assay type: physicochemical
# Description: The alpha sulfonated alkyl ester test compositions from Example 3 were used for this stability assessment because, unexpectedly, the spores in some of the test compositions remained fully dispersed in the compositions after sitting for 1 week, even though the test compositions were at use dilution and water thin. Physical stability of the test compositions was assessed by photographing the test compositions in the parent sample jars (from which the Example 3 samples were taken), looking down on the sample jars, and quantifying the degree of precipitation via Tracker.jar image analysis.
# [3] = tested on: Bacillus species mix in spore form; experiment: un-dyed EVOO test, visual haze; settings: for biological activity (haze), magnesium salt in the additive: 0.2 wt % rhamnolipids, 0.03 wt % L-alanine, 0.03 wt % potassium nitrate, 0.14 wt % magnesium salt; for biological activity (haze), low foam alkoxylate with additives: 1.0 wt % TOXIMUL 8240, 0.09 wt % L-alanine
# Description: Comparative compositions were also prepared comprising the surfactant and bacterial spores, but no additive. Control compositions contained the bacterial spores, with and without additives, but no surfactant. All test, comparative and control compositions contained 2 wt % of 3.3 g/L Nutrient Mix. The pH was adjusted to pH of 7 if needed, using L-lactic acid or dilute NaOH. The compositions were photographed initially, then re-photographed after 4 and 5-7 days of orbital-mixer shaking at setting “5”, and initial and aged compositions were compared visually to determine differences.
# [4] = tested on: beneficial microorganisms; experiment: compatibility of surfactants and builders with beneficial microorganisms; assay type: cell-based
# Description: The compositions of the present technology comprise at least one surfactant that is incompatible with a beneficial microorganism. Incompatibility between a surfactant and a beneficial microorganism has been investigated in various ways, such as a standard Zone of Inhibition test, a standard agar plating test, or a standard resazurin (7-hydroxy-10-oxidophenoxazin-10-ium-3-one, sodium) (a blue fluorogenic dye) compatibility assay. In a Zone of Inhibition test, microorganisms are grown, cultured, diluted down to target levels, and then applied to a Petri dish containing agar nutrients. Test samples containing the surfactant of interest are diluted and loaded into an agar well created within the agar nutrient. The plates are incubated and microorganism growth is allowed to develop. […] This halo is referred to as the zone of inhibition. The larger the zone, the bigger the effect of inhibition. Major suitability limitations for non-antibiotics test samples for this test method are inherent large dilution of active, agar diffusion challenges, and nutrient media incompatibilities (neutralization, precipitation, etc). Although this method has been used in the medical field for antibiotics very successfully for decades, it has low suitability when testing non-antibiotic samples. In a standard agar plating test, test samples containing the surfactant of interest and microorganisms are exposed, diluted several orders of magnitude, and plated onto a nutritive agar that is incubated. After an incubation period appropriate for the species, the microorganism growth pattern is evaluated against appropriate controls. […] The test samples are incubated and then inspected for colorometric and fluorescence change. Test samples that are blue and have low fluorescence indicate no biological activity and incompatibility between the surfactant and the microorganism. Test samples that are pink and have high fluorescence indicate biological activity and compatibility of the surfactant with the microorganism. […]
# Bacillus spore blend = experiment: diluted concentrate EVOO haze test; assay type: cell-based
# Description: Concentrates of two test formulations were prepared comprising the alkyl ether sulfate surfactant at 7.5 wt % actives, a Bacillus spore blend at 10.0 wt % (5×10^9 CFU/g), a mixture of 0.75 wt % potassium chloride and 0.75 wt % magnesium nitrate, and water to total 100%. Castor oil 36EO alkoxylate (TOXIMUL® 8240) (100% active) in an amount of 1.5 wt % was added to one of the test formulations. Two comparative concentrate compositions were also prepared. One comparative composition comprised the same amount of surfactant and spores but no additive or TOXIMUL® 8240, and the other comparative composition comprised the same amount of surfactant, spores, and TOXIMUL® 8240, but no additive. A total of 20 g of each concentrate composition was prepared.
# For the test, each concentrate composition was diluted to 2.0 wt % (1×10^8 CFU/g) in a 4 oz glass jar, with 1 wt % 33 g/L Nutrient (30 g/L Tryptic Soy Broth+3 g/L Yeast Extract), 0.2 wt % Extra Virgin Olive Oil (EVOO), and water to total 50.0 g total weight. The jars were mixed on the orbital shaker for 15-30 minutes and initially photographed, and then mixed on the orbital shaker for 7 days and re-photographed.
# Concentrates of the four test formulations were prepared comprising the calcium alkyl benzene sulfonate surfactant at 7.5 wt % actives, a Bacillus spore blend at 10.0 wt % (5×10^9 CFU/g), 1.5 wt % of the respective additive mixture, and water to total 100%. Each concentrate was 20 g total weight. Two control concentrates were also prepared. The positive control concentrate contained 10 wt % of the Bacillus spore blend and water, and the negative control concentrate contained 10 wt % of the Bacillus spore blend, 7.5 wt % surfactant actives, and water.
# [5] = alkyl sarcosinate MAPROSYL 30-B, FIG. 3
# [6] = alpha-sulfonated alkyl ester ALPHA-STEP PC-48, additives with glucose, FIG. 5
# [7] = alpha-sulfonated alkyl ester ALPHA-STEP PC-48, additives without glucose, FIG. 4
# [8] = surfactant 0.2 wt % active, 0.09 wt % potassium nitrate, 0.02 wt % magnesium chloride hexahydrate, 7 days
# [9] = concentrate 7.5 wt % surfactant actives diluted to 2.0 wt %
molecule,measurement,setting,value
"O=[N+]([O-])[O-].[K+] [KNO3, potassium nitrate]",desirability (optimization contour plot of EVOO digestion),[1]; [5],high desirability
same,desirability (optimization contour plot of EVOO digestion),[1]; [6],high desirability
same,desirability (optimization contour plot of EVOO digestion),[1]; [7],high desirability
same,desirability (contour plot combining digestion and physical stability),"[2]; alpha sulfonated alkyl ester test compositions of Example 3, FIG. 10",higher desirability
C[C@H](N)C(=O)O [L-alanine],desirability (optimization contour plot of EVOO digestion),[1]; [5],high desirability
same,desirability (optimization contour plot of EVOO digestion),[1]; [6],low to zero desirability
same,desirability (optimization contour plot of EVOO digestion),[1]; [7],high desirability
same,desirability (optimization contour plot of EVOO digestion),"[1]; rhamnolipid surfactant, additives without glucose, FIG. 1",high desirability
same,desirability (contour plot combining digestion and physical stability),[2],higher desirability
O=C([O-])CC(O)(CC(=O)[O-])C(=O)O.[Mg+2] [Mg(Citrate) dibasic],"biological activity (haze), magnesium salt in the additive",[3]; 7 days,restore biological activity
"O=[N+]([O-])[O-].O=[N+]([O-])[O-].[Mg+2] [Mg(NO3)2, magnesium nitrate]","biological activity (haze), magnesium salt in the additive",[3]; 7 days,restore biological activity
"O=S(=O)([O-])[O-].[Mg+2] [MgSO4, magnesium sulfate]","biological activity (haze), magnesium salt in the additive",[3]; 7 days,restore biological activity
C=CCCCCCCCC(=O)N(C)C [STEPOSOL MET-10U],compatibility with beneficial microorganisms,[4],compatible
O.O.O=C([O-])CC(O)(CC(=O)[O-])C(=O)[O-].[Na+].[Na+].[Na+] [sodium citrate dihydrate],compatibility with beneficial microorganisms,[4],compatible
O=C([O-])[C@H](O)[C@@H](O)[C@H](O)[C@H](O)CO.[Na+] [sodium gluconate],compatibility with beneficial microorganisms,[4],compatible
C12-C14 monoethanolamide-7EO-4PO [C42 MEA Amide-7EO-4PO],"biological activity (haze), low foam alkoxylate with additives",[3]; [8],increased biological activity
calcium alkyl benzene sulfonate,"haze after 7 days, equal amounts of the additive components","Bacillus spore blend; 7.5 wt % surfactant actives, 0.5 wt % of each of L-alanine, Mg(NO3)2 and KCl, diluted to 2.0 wt %",some increase in haze
same,"haze after 7 days, L-alanine as the majority additive component","Bacillus spore blend; 7.5 wt % surfactant actives, 1.0 wt % L-Alanine + 0.25 wt % each of KCl and Mg(NO3)2, diluted to 2.0 wt %",some increase in haze
same,"haze after 7 days, Mg(NO3)2 as the majority additive component","Bacillus spore blend; 7.5 wt % surfactant actives, 1.0 wt % Mg(NO3)2 and 0.25 wt % each of L-alanine and KCl, diluted to 2.0 wt %",some increase in haze
same,"haziness after 7 days, surfactant without additive (negative control)",Bacillus spore blend; [9],reduced haziness
cocoamidopropyl hydroxysultaine [AMPHOSOL® CS-50],"biological activity (haze) of bacterial spores, surfactant with additives","[3]; surfactant 0.2 wt % active, 0.09 wt % L-alanine, 0.09 wt % potassium nitrate, 0.02 wt % magnesium chloride hexahydrate, 7 days","shows haze, indicative of biological activity"
same,"biological activity (haze) of bacterial spores, surfactant without additives","[3]; surfactant 0.2 wt % active, no additive, 1×10^7 CFU/g, 7 days orbital shaking",inhibits biological activity
isodecyl-1PO-8EO [DA-1PO-8EO],"biological activity (haze), low foam alkoxylate with additives",[3]; [8],increased biological activity
same,"biological activity (haze), low foam alkoxylate without additives","[3]; surfactant 0.2 wt % active, 1.0 wt % TOXIMUL 8240, no additive, 7 days",the most sign of inhibition
sodium laureth sulfate [alkyl ether sulfate],"haze after 7 days, 1.5 wt % TOXIMUL 8240, no additive",Bacillus spore blend; [9],lack of haze
same,"haze after 7 days, no additive, no TOXIMUL 8240",Bacillus spore blend; [9],lack of haze
same,"haze after 7 days, additive and TOXIMUL 8240","Bacillus spore blend; concentrate 7.5 wt % surfactant actives, 0.75 wt % potassium chloride, 0.75 wt % magnesium nitrate, 1.5 wt % TOXIMUL 8240, diluted to 2.0 wt %",increase in haze
same,"haze after 7 days, additive, no TOXIMUL 8240","Bacillus spore blend; concentrate 7.5 wt % surfactant actives, 0.75 wt % potassium chloride, 0.75 wt % magnesium nitrate, diluted to 2.0 wt %",lack of haze
